From PubChem BioAssay (NCI)
Where “and” joins values, the source holds several entries; their conditions need not be identical. Equal values may be shown once.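 Cultured in 96-well plates, cells were exposed to test compound for 48 hours across five concentrations. Here, GI50 denotes the concentration required for 50% inhibition of growth. TGI marks complete inhibition of growth.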

What was measured:
Test in all cases: inhibition of tumour cell growth, NCI panel, 48 h
ACHN renal = tested on: ACHN renal
K-562 leukemia = tested on: K-562 leukemia
MDA-MB-231 breast = tested on: MDA-MB-231 breast
NCI-H522 lung = tested on: NCI-H522 lung
RXF 393 renal = tested on: RXF 393 renal
SK-MEL-5 melanoma = tested on: SK-MEL-5 melanoma
UACC-62 melanoma = tested on: UACC-62 melanoma
UO-31 renal = tested on: UO-31 renal
LXFL 529 NSCLC = tested on: LXFL 529 NSCLC
SNB-78 CNS = tested on: SNB-78 CNS

SMILES	GI50 (ACHN renal) [µM]	TGI (ACHN renal) [µM]	GI50 (K-562 leukemia) [µM]	TGI (K-562 leukemia) [µM]	GI50 (MDA-MB-231 breast) [µM]	TGI (MDA-MB-231 breast) [µM]	GI50 (NCI-H522 lung)	TGI (NCI-H522 lung)	GI50 (RXF 393 renal) [µM]	TGI (RXF 393 renal) [µM]	GI50 (SK-MEL-5 melanoma) [µM]	TGI (SK-MEL-5 melanoma) [µM]	GI50 (UACC-62 melanoma) [µM]	TGI (UACC-62 melanoma) [µM]	GI50 (UO-31 renal) [µM]	TGI (UO-31 renal) [µM]	TGI (LXFL 529 NSCLC) [µM]	TGI (SNB-78 CNS) [µM]
Cc1cc(O)cc(C)c1/C=C/c1cncc(C(N)=O)c1	8.43	> 25	1.06	> 25	2.15	> 25	0.779 µM	3.84 µM	2.36	13	1.11	> 25	1.36	23.1	5.58	> 25	–	–
COc1cc(O)c2c(c1)O[C@@H]1OCC[C@H]21	–	> 100	–	> 100	–	–	–	–	–	–	–	> 100	–	> 100	–	> 100	> 100	> 100
O=[N+]([O-])c1ccc(C2CC(c3ccccc3)=Nc3ccccc3S2)cc1 (stereo not drawn)	88.7	> 100	3.87	> 100	> 100	> 100	> 100 µM	> 100 µM	> 100	> 100	> 100	> 100	> 100	> 100	3.8	> 100	–	–
O=C([O][Hg][CH2]C1OCCOC1[CH2][Hg][O]C(=O)c1ccccc1)c1ccccc1 (stereo not drawn)	1.95	3.4	1.83	5.46	16.3	31.7	0.0642 µM	0.23 µM	2.08	4.06	7.58	22.8	16.5	30.3	1.79	3.27	–	–
N=N/C(=C\c1c(O)[nH]c2ccccc12)c1ccccc1	–	> 100	–	> 100	–	> 76.5	–	86.7 µM	–	62.6	–	> 100	–	> 100	–	> 100	–	–
CC(C)(C)[Si](C)(C)OC1[C@@H](O[Si](C)(C)C(C)(C)C)[C@@H](CNC(=O)NC(=O)CF)O[C@H]1n1cnc2c(NC(=O)Nc3ccccc3)ncnc21 (stereo partly drawn)	8.67	38.6	14.7	> 50	7.76	23.1	> 50 µM	> 50 µM	1.35	4.57	3.07	25.6	31.2	> 50	11.2	> 50	–	–
COC(=O)C1=COC(C)C2CN3CCc4c([nH]c5cc(OC)c(OC)cc45)C3CC12 (stereo not drawn)	–	> 100	–	> 100	–	> 100	> 100 µM and 22 µM	> 100 µM and 57.2 µM	–	85.8	–	> 100	–	> 100	–	> 100	–	–
COc1ccc(NC(=O)CC/C(CC(=O)c2ccco2)=N/NC(N)=S)cc1	–	> 100	–	> 100	–	–	–	> 100 µM	–	–	–	–	–	> 100	–	> 100	> 100	> 100
COC(=O)c1ccccc1N1C(=O)Cc2ccccc2C1=O	–	> 100	–	> 100	–	–	–	–	–	> 100	–	> 100	–	> 100	–	> 100	> 100	> 100
